Where two headings read alike, the source gives them in different places.
Columns and labels:
[1] = system: Human lung carcinoma A549 cells; settings: uninfected A549 cells, CellTiter-Glo
[2] = system: Influenza strain A549 A/WSN/33 (H1N1); assay: microbe, parasite or virus in culture; type: cell-based; settings: A549 cells, influenza A/WSN/33 (H1N1), 20 hours incubation, read-out: A549_A(H1N1) EC50
[3] = in vitro; settings: human, CC50, uninfected A549 cells, CellTiter-Glo

Compound CCC1C=CCOc2ccccc2C(c2ccccc2)N2CN1C(=O)c1c(OCc3ccccc3)c(=O)ccn12 (stereo not shown) has a ring closure, yield of all isomers (from C=CCOc1ccccc1C(c1ccccc1)N1CN(C(C=C)CC)C(=O)c2c(OCc3ccccc3)c(=O)ccn21, rcm bond, Hoveyda-Grubbs catalyst 2nd generation, DCE, […], 80.0 °C, 2.0 h) of 62.5%.
O=C1CCN2CN(C(c3ccccc3)c3ccccc3CN1)n1ccc(=O)c(OCc3ccccc3)c1C2=O (stereo not shown) showed a ring closure, yield of all isomers (from NCc1ccccc1C(c1ccccc1)N1CN(CCC(=O)O)C(=O)c2c(OCc3ccccc3)c(=O)ccn21, amide bond, HATU, DMF, […], 80.0 °C) of 51.7%.
Compound O=C1c2c(OCc3ccccc3)c(=O)ccn2N2CN1C1(C=CCOc3c(ccc(F)c3F)C2c2ccccc2)CCC1 (stereo not shown) has a ring closure, yield of all isomers (from C=CCOc1c(C(c2ccccc2)N2CN(C3(C=C)CCC3)C(=O)c3c(OCc4ccccc4)c(=O)ccn32)ccc(F)c1F, rcm bond, Hoveyda-Grubbs II, dichloroethane, 12.05 mM, 100.0 °C, 6.0 h) of 40.7%.
In the case of O=C1c2c(OCc3ccccc3)c(=O)ccn2N2CN1CC1CC1COc1ccccc1C2c1ccccc1 (stereo not shown), the ring closure, yield of all isomers (from O=C1c2c(OCc3ccccc3)c(=O)ccn2N(C(c2ccccc2)c2ccccc2O)CN1CC1CC1CBr, ether bond, K2CO3, CH3CN, 44.8 mM, […], 0.5 h) is reported as 55.8%.
O=C1c2c(OCc3ccccc3)c(=O)ccn2N2CN1CC=CCCOc1cccc(c1)C2c1ccccc1 (stereo not shown) gave a ring closure, yield of all isomers (from C=CCCOc1cccc(C(c2ccccc2)N2CN(CC=C)C(=O)c3c(OCc4ccccc4)c(=O)ccn32)c1, rcm bond, Hoveyda-Grubbs 2nd generation, DCE, 12.1 mM, 90.0 °C, […]) of 8.9%.
In the case of O=C1c2c(OCc3ccccc3)c(=O)ccn2N2CN1CC=CCOc1c(F)cccc1C2c1cccc(F)c1 (stereo not shown), the ring closure, yield of all isomers (from C=CCOc1c(F)cccc1C(c1cccc(F)c1)N1CN(CC=C)C(=O)c2c(OCc3ccccc3)c(=O)ccn21, rcm bond, Hoveyda-Grubbs second generation catalyst, DCE, 19.6 mM, 80.0 °C, 2.0 h) is reported as 13.6%.
In the case of O=C1c2c(OCc3ccccc3)c(=O)ccn2N2CN1CC=CCOc1cccc3c1C2c1ccccc1SC3 (stereo not shown), the ring closure, yield of all isomers (from C=CCOc1cccc2c1C(N1CN(CC=C)C(=O)c3c(OCc4ccccc4)c(=O)ccn31)c1ccccc1SC2, rcm bond, Hoveyda-Grubbs catalyst 2nd generation, DCE, 16.04 mM, 80.0 °C, […]) is reported as 15%.
O=C1c2c(OCc3ccccc3)c(=O)ccn2N2CN1CC=CCOc1ccccc1C2c1ccccc1 (stereo not shown) showed a ring closure, yield of all isomers (from C=CCOc1ccccc1C(c1ccccc1)N1CN(CC=C)C(=O)c2c(OCc3ccccc3)c(=O)ccn21, rcm bond, Hoveyda-Grubbs 2nd generation, DCE, […], 80.0 °C, 2.0 h) of 21.4%.
O=C1c2c(OCc3ccccc3)c(=O)ccn2N2CN1CC=CCOc1ccccc1C2c1ccccn1 (stereo not shown) showed a ring closure, yield of all isomers (from C=CCOc1ccccc1C(c1ccccn1)N1CN(CC=C)C(=O)c2c(OCc3ccccc3)c(=O)ccn21, rcm bond, Hoveyda-Grubbs catalyst 2nd generation, DCE, 14.6 mM, 80.0 °C, 2.0 h) of 9.7%.
For O=C1c2c(OCc3ccccc3)c(=O)ccn2N2CN1CCC=CCOc1cccc3c1C2c1ccccc1SC3 (stereo not shown), the ring closure, yield of all isomers (from C=CCCN1CN(C2c3ccccc3SCc3cccc(OCC=C)c32)n2ccc(=O)c(OCc3ccccc3)c2C1=O, rcm bond, Hoveyda-Grubbs catalyst 2nd generation, DCE, 13.86 mM, 80.0 °C, […]) was 19.8%.
O=C1c2c(OCc3ccccc3)c(=O)ccn2N2CN1CCC=CCc1ccccc1C2c1ccccc1 (stereo not shown) gave a ring closure, yield of all isomers (from C=CCCN1CN(C(c2ccccc2)c2ccccc2CC=C)n2ccc(=O)c(OCc3ccccc3)c2C1=O, rcm bond, Hoveyda-Grubbs 2nd generation, DCE, 12.7 mM, 80.0 °C, 3.0 h) of 69.2%.
In the case of O=C1c2c(O)c(=O)ccn2N2CN1C/C=C\CCc1ccccc1C2c1ccncc1 (single isomer, unassigned) [Compound 52A, (16*R,*Z)-4-hydroxy-16-(pyridin-4-yl)-7,10,11,16-tetrahydro-6,17-methanobenzo[k]pyrido[1,2-b][1,2,5]triazacyclotridecine-3,5-dione], the CC50 [1] is reported as > 2000 nM and the EC50 [2] is reported as > 1000 nM.
With O=C1c2c(O)c(=O)ccn2N2CN1C/C=C\CCc1ccccc1C2c1ccncc1 (single isomer, unassigned) [Compound 52B, (16*S,*Z)-4-hydroxy-16-(pyridin-4-yl)-7,10,11,16-tetrahydro-6,17-methanobenzo[k]pyrido[1,2-b][1,2,5]triazacyclotridecine-3,5-dione] the CC50 [1] was > 2000 nM and the EC50 [2] was 84 nM.
With O=C1c2c(O)c(=O)ccn2N2CN1CCCCCOc1cccc3c1[C@@H]2c1ccccc1SC3 (single isomer, unassigned) [Compound 69A, (23b*R)-6-hydroxy-10,11,12,13,18,23b-hexahydro-9H-1,8-methano[1]benzothiepino[5,4,3-lm]pyrido[2,1-i][1,7,10,11]benzoxatriazacyclotetradecine-5,7-dione] the CC50 [1] was > 2000 nM and the EC50 [2] was > 1000 nM.
For O=C1c2c(O)c(=O)ccn2N2CN1CCCCCOc1cccc3c1[C@H]2c1ccccc1SC3 (single isomer, unassigned) [Compound 69B, (23b*S)-6-hydroxy-10,11,12,13,18,23b-hexahydro-9H-1,8-methano[1]benzothiepino[5,4,3-lm]pyrido[2,1-i][1,7,10,11]benzoxatriazacyclotetradecine-5,7-dione], the CC50 [1] was > 2000 nM and the EC50 [2] was 27 nM.
Compound O=C1c2c(O)c(=O)ccn2N2CN1C/C=C/CCc1c(F)cccc1C2c1cccc(F)n1 (single isomer, unassigned) [Compound 76A, (16*R,E)-12-fluoro-16-(6-fluoropyridin-2-yl)-4-hydroxy-7,10,11,16-tetrahydro-6,17-methanobenzo[k]pyrido[1,2-b][1,2,5]triazacyclotridecine-3,5-dione] has a CC50 [1] of 43900 nM and an EC50 [2] of 3590 nM.
For O=C1c2c(O)c(=O)ccn2N2CN1C/C=C/CCc1c(F)cccc1C2c1cccc(F)n1 (single isomer, unassigned) [Compound 76B, (16*S,E)-12-fluoro-16-(6-fluoropyridin-2-yl)-4-hydroxy-7,10,11,16-tetrahydro-6,17-methanobenzo[k]pyrido[1,2-b][1,2,5]triazacyclotridecine-3,5-dione], the CC50 [1] was > 200 nM and the EC50 [2] was 6 nM.
With CC[C@@H]1/C=C\COc2cccc3c2[C@@H](c2ccccc2SC3)N2CN1C(=O)c1c(O)c(=O)ccn12 [Compound 92BB, (13R,21aS,Z)-13-ethyl-16-hydroxy-6,10,13,21a-tetrahydro-7,8-(epiprop[1]en[1]yl[3]ylidene)-14,21-methanobenzo[6,7]thiepino[4,5-c]pyrido[1,2-f][1]oxa[5,6,9]triazacyclotridecine-15,17-dione] the EC50 ([2]; Influenza A virus, A549, 20 h) was 1.5 nM and the CC50 [3] was > 100 nM.
With CC[C@H]1/C=C/COc2c(ccc(F)c2F)[C@@H](c2ccccc2)N2CN1C(=O)c1c(O)c(=O)ccn12 [Compound 101AA, (9S,18R,E)-9-ethyl-3,4-difluoro-12-hydroxy-18-phenyl-6,9-dihydro-18H-10,17-methanobenzo[b]pyrido[1,2-f][1]oxa[5,6,9]triazacyclotridecine-11,13-dione] the EC50 ([2]; Influenza A virus, A549, 20 h) was 0.7 nM and the CC50 [3] was > 100 nM.
For CC[C@@H]1/C=C/COc2c(ccc(F)c2F)[C@@H](c2ccccc2)N2CN1C(=O)c1c(O)c(=O)ccn12 [Compound 101AB, (9R,18R,E)-9-ethyl-3,4-difluoro-12-hydroxy-18-phenyl-6,9-dihydro-18H-10,17-methanobenzo[b]pyrido[1,2-f][1]oxa[5,6,9]triazacyclotridecine-11,13-dione], the EC50 ([2]; Influenza A virus, A549, 20 h) was 1.3 nM and the CC50 [3] was > 200 nM.
In the case of CC[C@H]1/C=C/COc2c(ccc(F)c2F)[C@H](c2ccccc2)N2CN1C(=O)c1c(O)c(=O)ccn12 [Compound 101BA, (9S,18S,E)-9-ethyl-3,4-difluoro-12-hydroxy-18-phenyl-6,9-dihydro-18H-10,17-methanobenzo[b]pyrido[1,2-f][1]oxa[5,6,9]triazacyclotridecine-11,13-dione], the EC50 ([2]; Influenza A virus, A549, 20 h) is reported as > 100 nM and the CC50 [3] is reported as > 200 nM.
In the case of CC[C@@H]1/C=C/COc2c(ccc(F)c2F)[C@H](c2ccccc2)N2CN1C(=O)c1c(O)c(=O)ccn12 [Compound 101BB, (9R,18S,E)-9-ethyl-3,4-difluoro-12-hydroxy-18-phenyl-6,9-dihydro-18H-10,17-methanobenzo[b]pyrido[1,2-f][1]oxa[5,6,9]triazacyclotridecine-11,13-dione], the EC50 ([2]; Influenza A virus, A549, 20 h) is reported as 5030 nM and the CC50 [3] is reported as 29900 nM.
With O=C1c2c(O)c(=O)ccn2N2CN1C1(/C=C/COc3c(ccc(F)c3F)[C@H]2c2ccccc2)CC1 [Compound 102A, (18′R,E)-3′,4′-difluoro-12′-hydroxy-18′-phenyl-6′H,18′H-spiro[cyclopropane-1,9′-[10,17]methanobenzo[b]pyrido[1,2-f][1]oxa[5,6,9]triazacyclotridecine]-11′,13′-dione] the EC50 ([2]; Influenza A virus, A549, 20 h) was 0.9 nM and the CC50 [3] was > 100 nM.
O=C1c2c(O)c(=O)ccn2N2CN1C1(/C=C/COc3c(ccc(F)c3F)[C@@H]2c2ccccc2)CC1 [Compound 102B, (18'S,E)-3′,4′-difluoro-12′-hydroxy-18′-phenyl-6′H,18′H-spiro[cyclopropane-1,9′-[10,17]methanobenzo[b]pyrido[1,2-f][1]oxa[5,6,9]triazacyclotridecine]-11′,13′-dione] gave an EC50 ([2]; Influenza A virus, A549, 20 h) of 3360 nM and a CC50 [3] of 33900 nM.
For O=C1c2c(O)c(=O)ccn2N2CN1C/C=C/COc1c(F)cccc1[C@@H]2c1ccccc1C1CC1 [Compound 123B, (18S,E)-18-(2-cyclopropylphenyl)-4-fluoro-12-hydroxy-6,9-dihydro-18H-10,17-methanobenzo[b]pyrido[1,2-f][1]oxa[5,6,9]triazacyclotridecine-11,13-dione], the EC50 ([2]; Influenza A virus, A549, 20 h) was > 100 nM and the CC50 [3] was > 200 nM.
For O=C1c2c(O)c(=O)ccn2N2CN1C1(/C=C/COc3c(ccc(F)c3F)[C@H]2c2ccccc2)CCC1 [Compound 146A, (18′R,E)-3′,4′-difluoro-12′-hydroxy-18′-phenyl-6′H,18′H-spiro[cyclobutane-1,9′-[10,17]methanobenzo[b]pyrido[1,2-f][1]oxa[5,6,9]triazacyclotridecine]-11′,13′-dione], the EC50 ([2]; Influenza A virus, A549, 20 h) was 0.65 nM and the CC50 [3] was > 100 nM.
In the case of O=C1c2c(O)c(=O)ccn2N2CN1C1(/C=C/COc3c(ccc(F)c3F)[C@@H]2c2ccccc2)CCC1 [Compound 146B, (18'S,E)-3′,4′-difluoro-12′-hydroxy-18′-phenyl-6′H,18′H-spiro[cyclobutane-1,9′-[10,17]methanobenzo[b]pyrido[1,2-f][1]oxa[5,6,9]triazacyclotridecine]-11′,13′-dione], the EC50 ([2]; Influenza A virus, A549, 20 h) is reported as 340 nM and the CC50 [3] is reported as > 10000 nM.
